In a melting point compilation (Tetko et al.; mined from patent text by program, amines drawn as free bases though some values may be those of a salt):

SMILES	melting point [°C]
O=C(Cl)Oc1c(CCl)cccc1CCl	71.5 to 73.5
C=CCCC(C(=O)O)(C(=O)O)C(F)F	80 to 81
CCOC(=O)C1=C(C)Nc2nnnn2C1c1cccc([N+](=O)[O-])c1 (stereo not drawn)	210 to 212
CCC(C)CNC(=O)C(CC(O)C(CC(C)C)NC(=O)C(Cc1cscn1)NC(=O)C(Cc1cccc2ccccc12)NC(=O)OC(C)(C)C)C(C)(C)O (mixture of isomers)	90 to 92
CCOCn1c(C(F)(F)F)c(C#N)c2ccc(Cl)c(Cl)c21	122 to 127
CC1(C)CN(C(=N)NC=C(C#N)C(=O)N(CC2CC2)c2cccc(C(F)(F)F)c2)C(=O)N1	121 to 122
Nc1ccnc(Cl)c1Cl	146 to 148
CCC(CC)Nc1cc(C)nc(Oc2c(C)cc(Cl)cc2C)c1NC(C)=O	161 to 164
O=C(/C=C/c1ccc(N2CCOCC2)cc1)CC(=O)/C=C/c1ccc2cc[nH]c2c1	93 to 97
Cc1cc(O)ccc1-n1cc(C(=O)O)c(=O)cc1C1CCCCCCC1	118 to 120
CCSC/C=C\c1cc(F)c2ncc(C(=O)NCc3ccc(Cl)cc3)c(O)c2c1	203 to 205
COc1nc2ccc(Cl)cc2nc1Cl	113 to 114
COCc1noc(N2CCC([C@H]3C[C@H]3CCOc3ccc(S(C)(=O)=O)cn3)CC2)n1	68 to 70
Cc1cc2c(cc1[N+](=O)[O-])OCO2	83 to 84
CCc1cccc2nc(C(=O)OC)c(C(=O)OC)c(O)c12	111 to 114
O=C(C=Cc1cccs1)C=Cc1cccs1	115 to 117
CCCNC1Cc2cccc3[nH]c(=O)n(c23)C1 (stereo not drawn)	> 300
O=[N+]([O-])c1ccc(C=Cc2ccc(Cl)c(Cl)c2)cc1	190 to 191
O=C(O)CCCCNS(=O)(=O)c1ccc(N2CCCCCCC2)cc1	149 to 150
NS(=O)(=O)c1cc2c(cc1Cl)NC(CCCCCO)NS2(=O)=O (stereo not drawn)	190
COc1c(C=O)c(=O)n(C)c(=O)n1C	105 to 107

SMILES	melting point [°C]
CCCCCCCCCCCCNC(=O)c1cc(-c2cccc(C(F)(F)F)c2)c(OCCO)c(-c2cccc(C(F)(F)F)c2)c1	154 to 158
Cc1cnc2c(Cl)cnn2c1-c1cccc(C(F)(F)F)c1	195 to 197
O=C1CNc2ncc(I)cc2N1Cc1cc(Cl)ccc1Cl	> 200
CS(=O)(=O)C(CC(S(C)(=O)=O)S(C)(=O)=O)S(C)(=O)=O	278 to 280
Cc1oc2cc(C3CC(=O)NC(=O)C3)ccc2c1C	252 to 254
COC(=O)NC1=NCC(c2cc(Cl)ccc2Cl)CN1 (stereo not drawn)	231 to 234
COP1(=S)OCc2cc(C)cnc2O1 (stereo not drawn)	74 to 75
COc1cccc(CCC(=O)O)c1C	143 to 147
CCOC(=O)c1cccc2c1CCCC2C(N)=O (stereo not drawn)	160 to 162
CCOC(=O)C(C)=NNc1ccc(F)cc1F	153 to 156
COC(=O)CCNCC1CC2c3cccc4[nH]cc(c34)CC2N(C)C1 (stereo not drawn)	130 to 132
COC(=O)CCC#Cc1ccc(C(F)(F)F)cc1N	42
CCCCCS(=O)(=O)NC(=O)CCc1cc(OCCCC)nn1Cc1ccc(C(F)(F)F)cc1Cl	131 to 133
FC(F)Oc1ccc2c(Cc3c(Cl)cncc3Cl)nnc(-n3cncn3)c2c1	220 to 224
O=C1Cc2cccc(OCC3CO3)c2ON1 (stereo not drawn)	158 to 160
CCc1c(CC#N)ccc(O)c1O	101 to 103
Cc1cc(C)cc(P(=O)(O)c2cc(C)cc(C)c2)c1	256 to 261
CCC1(CC)c2cc(-c3nc4ccccc4s3)ccc2-c2ccc(N(c3ccc(Oc4ccc(N)cc4)cc3)c3ccc(Oc4ccc(N)cc4)cc3)cc21	192 to 194
COc1ccc(CC(=O)O)cc1C1CCCCC1	112 to 114
C=C1CCCC2(C)C1=CC(=O)C1C3CCC(=O)C3(C)CCC12 (stereo not drawn)	132
O=S(=O)(c1ccc(Nc2nccc(-c3ccc(C(F)(F)F)cc3)n2)cc1)N1CCOCC1	240 to 241

Further lines, results first:

melting point [°C]	SMILES
120 to 122	CCN1C(=O)C(=C(Cc2ccccc2)OC)SC1=S
> 250	Cc1ccc(-c2[nH]c(-c3cnc4ccccc4c3)nc2C(=O)Nc2nccs2)cc1
177 to 178	COc1cccc(Cn2cnc3c(Br)c(NC4=NCCN4)ccc32)c1
100	O[C@@H]1CN=C(c2cccc(Cl)c2)O[C@H]1c1ccccc1 (racemic)
151 to 154	COc1ccc(C(C)C)cc1-c1cc(C(=O)NC2CCN(C(=O)OC(C)(C)C)C2)c(OCc2ccccc2)cc1OCc1ccccc1 (stereo not drawn)
251	CCc1ccc2cc(C3(Cn4ccnc4)OCCO3)ccc2c1
128 to 130	CC(=O)c1cc2c(s1)CCCC1CC(=O)N(c3ccc(Cl)cc3)N=C21 (stereo not drawn)
118	CCC(Nc1nc(NC(C)=O)nc(C(C)F)n1)c1ccccc1 (stereo not drawn)
114 to 116	CC(C)N1CC(CCl)C(c2ccccc2)(c2ccccc2)C1=O (stereo not drawn)
192 to 193	CCC(CC)C(NC(=O)c1ccc(Cl)cc1)NC(=C[N+](=O)[O-])Nc1cccnc1 (stereo not drawn)
276 to 278	Nc1nc(-c2ccccc2)c(F)c(=O)[nH]1
195 to 196	CCOC(=O)c1ccc(C(=O)c2c(N)sc3c2CCN(C(=O)OCc2ccccc2)C3)cc1
156 to 157	CCOC(=O)c1ccc(CCN2CCN(S(=O)(=O)c3ccccc3)CC2)cc1
147	O=C(Cl)c1cc2n(c1)CCc1ccccc1C2=O
105 to 110	Nc1ccccc1NS(=O)(=O)c1cc(C(=O)O)cc(NCc2ccco2)c1Oc1ccccc1
80 to 82	COC(=O)c1ccccc1NC(=O)Cc1ccccc1C

melting point [°C]	SMILES
120 to 122	COc1cc2c(cc1O)CCN(Cc1cccc(OC(C)=O)c1)C2
151 to 154	NC(=O)N(c1ccccc1)c1nc(Cl)nc(Cl)n1
291	Cn1cc(CC(NC(=O)CCCC(=O)O)C(=O)NCCCCNC(=N)N)c2ccccc21 (stereo not drawn)
186 to 188	CCOC(=O)CNc1nc2cccccc-2c1C#N
252	O=C(Nc1cccc(S(=O)(=O)NC2CC2)c1)c1cnn2c(C(F)F)cc(-c3ccc(C(F)(F)F)cc3)nc12
180 to 182	Clc1ccc2c(c1)C(=C1CCN(CC3CCC3)CC1)c1ccccc1S2
184 to 186	Cn1nccc1COc1nn2c(-c3ccccc3F)nnc2cc1C1CCC1
72 to 75	c1ccc(C2(c3ccccc3)CCNCCO2)cc1
160	CCn1nc(C(C)C)c2c1C(=O)NCC(c1ccccc1)=N2
95.5 to 96	C[C@H](c1ccccc1)N1C(=O)c2c(F)c(F)c(F)c(F)c2C1=O
125 to 126	Cc1ccc2c(c1)C(C=O)c1ccccc1C2C=O (stereo not drawn)
134 to 135	CCOc1nn(-c2ccc(C(F)(F)F)cn2)cc1CCOc1ccccc1CC(=O)O
101 to 103	CCCC[C@H](NC(=O)[C@@H](NC(=O)OCc1ccccc1)[C@@H](C)CC)C(=O)CSCc1ccco1
141 to 143	CCN(CC)c1c(C(=O)O)n(-c2ccccc2)c2ccc(OC)cc12
108 to 110	COC(=O)c1c(CC(C)C)nc2ccc(Br)cc2c1-c1ccccc1
